Data reported in patent publication US20260015350A1, “AZAQUINAZOLINE PAN-KRAS INHIBITORS” (Mirati Therapeutics, Inc., priority 2022, published 2026).

Legend:
KRas^G12V = molecular target: T1, KRas^G12V (Homo sapiens, UniProt P01116, G12V); assay: KRas binding assay (TR-FRET tracer displacement), KRas G12V
T1 construct: Biotinylated KRas (corresponding to amino acids 1-169, produced at Accelegan Inc.); biotin (biotinylated); purchased Accelegan Inc

KRas^G12R = molecular target: T2, KRas^G12R (Homo sapiens, UniProt P01116, G12R); assay: KRas binding assay (TR-FRET tracer displacement), KRas G12R
T2 construct: Biotinylated KRas (corresponding to amino acids 1-169, produced at Accelegan Inc.); biotin (biotinylated); purchased Accelegan Inc

KRas^G12D = molecular target: T3, KRas^G12D (Homo sapiens, UniProt P01116, G12D); assay: KRas binding assay (TR-FRET tracer displacement), KRas G12D
T3 construct: Biotinylated KRas (corresponding to amino acids 1-169, produced at Accelegan Inc.); biotin (biotinylated); purchased Accelegan Inc

[1] = system: KRas-mediated phosphorylation of ERK in H727 cells; assay: Inhibition of KRas-mediated phosphorylation of ERK (Cisbio HTRF pERK), H727 cells; format: cell-based; conditions: Homo sapiens, NCI-H727, H727 cells; HTRF pERK
Experimental: (§1) Inhibition of KRas Phosphorylation of ERK (HTRF) by Exemplary Compounds of Formula (I) Cisbio HTRF Advanced PERK Assay Catalog #64[…] […] Add 10 mL of media to stop trypsinizing. Pipette the cells into a conical bottom 50 mL centrifuge tube and centrifuge 5 min×1000 rpm. […] Re-suspend the cell pellet in media, take a cell count, and then adjust the cell density using fresh media. […] Seed 6,000 cells into cell culture plate with 50 μL media. […] Use Tecan to complete the compound addition. Compounds start from 10 uM top, 3-fold dilution, and 10 doses. The final DMSO concentration is 0.8%. Dispensed 0.2 uM Trametinib as Min control. […] Incubate cell plate for 3 hrs in the incubator. […] Dilute 1 volume of 4× lysis buffer with 3 volumes of deionized water. […] Keep lysis buffer on the ice. […] At the end of the compound treatment, flick-off the media. […] Add 35 μL of lysis buffer per well using a Multidrop Combi. Then place on a plate agitator shaking at 300 rpm at 4° C. for 40 mins. […] Make up the HTRF antibody buffer. For each assay plate, mix 50 μL of d2-conjugate antibody with 950 μL of detection buffer. Similarly, mix 50 μL of Cryptate antibody with 950 μL of detection buffer. Then mix the two diluted antibodies together. […] Dispense 3.4 μL the antibody buffer to wells of an empty assay plate. Seal the plate and centrifuge plate 30 sec×1000 rpm. […] At the end of the 4° C. lysis, centrifuge the lysate plates 3 mins×1500 rpm. […] Use the Bravo to transfer 13.6 μL of lysate from cell culture plate to assay plate. Then incubate assay plate for 2 hrs at room temperature. 8. At the end of incubation, read plate on the Envision after centrifuging plate 30 sec×1000 rpm.

[2] = system: KRas-mediated phosphorylation of ERK in AsPC-1 cells; assay: Inhibition of KRas-mediated phosphorylation of ERK (Cisbio HTRF pERK), AsPC-1 cells; format: cell-based; conditions: Homo sapiens, ASPC1, AsPC-1 cells; HTRF pERK
Experimental: as §1

T3 sequence (P01116 1-169 isoform P01116-2 G12D): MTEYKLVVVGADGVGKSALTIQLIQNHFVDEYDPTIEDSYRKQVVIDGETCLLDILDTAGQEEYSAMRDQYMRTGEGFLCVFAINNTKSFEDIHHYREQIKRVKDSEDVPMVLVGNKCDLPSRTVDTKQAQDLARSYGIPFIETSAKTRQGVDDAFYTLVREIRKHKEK
T1 sequence (P01116 1-169 isoform P01116-2 G12V): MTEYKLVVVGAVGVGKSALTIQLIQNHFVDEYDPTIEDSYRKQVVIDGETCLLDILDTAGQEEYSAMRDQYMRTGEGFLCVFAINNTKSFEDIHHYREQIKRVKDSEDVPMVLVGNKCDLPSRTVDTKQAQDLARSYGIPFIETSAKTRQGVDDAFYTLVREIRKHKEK
T2 sequence (P01116 1-169 isoform P01116-2 G12R): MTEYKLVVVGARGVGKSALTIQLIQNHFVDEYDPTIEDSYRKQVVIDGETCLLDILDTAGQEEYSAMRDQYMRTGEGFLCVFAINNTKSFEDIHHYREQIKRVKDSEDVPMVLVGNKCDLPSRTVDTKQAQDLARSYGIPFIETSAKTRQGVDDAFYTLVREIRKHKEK

Row | Structure (SMILES) | IC50 (KRas^G12V) | IC50 (KRas^G12R) | IC50 (KRas^G12D) | IC50 [1] | IC50 [2]
1 | CCc1c(F)ccc2cc(O)cc(-c3ncc4c(NCC5CNC(=O)CO5)nc(OC[C@@]56CCCN5C[C@H](F)C6)nc4c3F)c12 (stereo partly drawn) [Example 556, 6-(((7-(8-ethyl-7-fluoro-3-hydroxynaphthalen-1-yl)-8-fluoro-2-(((2R,7aS)-2-fluorotetrahydro-1H-pyrrolizin-7a(5H)-yl)methoxy)pyrido[4,3-d]pyrimidin-4-yl)amino)methyl) morpholin-3-one] | 2 nM | < 2 nM | 10 nM | 2510 nM | > 10000 nM
2 | CCc1c(F)ccc2cc(O)cc(-c3ncc4c(N5CCC(n6cnnc6)C5)nc(OC[C@@]56CCCN5C[C@H](F)C6)nc4c3F)c12 (stereo partly drawn) [Example 564, 4-(4-(3-(4H-1,2,4-triazol-4-yl)pyrrolidin-1-yl)-8-fluoro-2-(((2R,7aS)-2-fluorotetrahydro-1H-pyrrolizin-7a(5H)-yl)methoxy)pyrido[4,3-d]pyrimidin-7-yl)-5-ethyl-6-fluoronaphthalen-2-ol] | 16 nM | 31 nM | 640 nM | > 10000 nM | > 10000 nM
3 | CCc1c(F)ccc2cc(O)cc(-c3ncc4c(N5CC6(C)CC(CO)(C5)C6)nc(OC[C@@]56CCCN5C[C@H](F)C6)nc4c3F)c12 [Example 565, 5-ethyl-6-fluoro-4-(8-fluoro-2-(((2R,7aS)-2-fluorohexahydro-1H-pyrrolizin-7a-yl)methoxy)-4-(1-(hydroxymethyl)-5-methyl-3-azabicyclo[3.1.1]heptan-3-yl)pyrido[4,3-d]pyrimidin-7-yl)naphthalen-2-ol] | 908 nM | 1030 nM | 1160 nM | > 10000 nM | > 10000 nM
4 | CCc1c(F)ccc2cc(O)cc(-c3ncc4c(N5CCN6C[C@@H](O)C[C@H]6C5)nc(OC[C@@]56CCCN5C[C@H](F)C6)nc4c3F)c12 [Example 567, (7S,8aS)-2-(7-(8-ethyl-7-fluoro-3-hydroxynaphthalen-1-yl)-8-fluoro-2-(((2R,7aS)-2-fluorohexahydro-1H-pyrrolizin-7a-yl)methoxy)pyrido[4,3-d]pyrimidin-4-yl) octahydropyrrolo[1,2-a]pyrazin-7-ol] | 2430 nM | 1460 nM | 682 nM | > 10000 nM | > 10000 nM
5 | CCc1c(F)ccc2cc(O)cc(-c3ncc4c(N5CC6(CO)CC5CCO6)nc(OC[C@@]56CCCN5C[C@H](F)C6)nc4c3F)c12 (stereo partly drawn) [Example 572, 5-ethyl-6-fluoro-4-(8-fluoro-2-(((2R,7aS)-2-fluorohexahydro-1H-pyrrolizin-7a-yl)methoxy)-4-(1-(hydroxymethyl)-2-oxa-6-azabicyclo[3.2.1]octan-6-yl)pyrido[4,3-d]pyrimidin-7-yl)naphthalen-2-ol] | 266 nM | 162 nM | 1970 nM | 4190 nM | > 10000 nM
6 | CCc1c(F)ccc2cc(O)cc(-c3ncc4c(N[C@H](C)CN5CC(C)(O)C5)nc(OC[C@@]56CCCN5C[C@H](F)C6)nc4c3F)c12 [Example 577, 1-((R)-2-((7-(8-ethyl-7-fluoro-3-hydroxynaphthalen-1-yl)-8-fluoro-2-(((2R,7aS)-2-fluorohexahydro-1H-pyrrolizin-7a-yl)methoxy)pyrido[4,3-d]pyrimidin-4-yl)amino)propyl)-3-methylazetidin-3-ol] | 606 nM | 727 nM | 29 nM | > 10000 nM | 8440 nM
7 | CCc1c(F)ccc2cc(O)cc(-c3ncc4c(NC56CCC(C#N)(CC5)CC6)nc(OC[C@@]56CCCN5C[C@H](F)C6)nc4c3F)c12 [Example 585, 4-((7-(8-ethyl-7-fluoro-3-hydroxynaphthalen-1-yl)-8-fluoro-2-(((2R,7aS)-2-fluorohexahydro-1H-pyrrolizin-7a-yl)methoxy)pyrido[4,3-d]pyrimidin-4-yl)amino)bicyclo[2.2.2]octane-1-carbonitrile] | 103 nM | 76 nM | 434 nM | 2060 nM | 4610 nM
8 | CCc1c(F)ccc2cc(O)cc(-c3ncc4c(N5C6CNC(=O)CC5COC6)nc(OC[C@@]56CCCN5C[C@H](F)C6)nc4c3F)c12 (stereo partly drawn) [Example 599, 10-(7-(8-ethyl-7-fluoro-3-hydroxynaphthalen-1-yl)-8-fluoro-2-(((2R,7aS)-2-fluorohexahydro-1H-pyrrolizin-7a-yl)methoxy)pyrido[4,3-d]pyrimidin-4-yl)-8-oxa-3,10-diazabicyclo[4.3.1]decan-4-one] | 85 nM | 23 nM | 2120 nM | > 10000 nM | > 10000 nM

Second part, the compound after the results:

Row | IC50 (KRas^G12V) | IC50 (KRas^G12R) | IC50 (KRas^G12D) | IC50 [1] | IC50 [2] | Structure (SMILES)
9 | 314 nM | 621 nM | 1780 nM | > 10000 nM | > 10000 nM | CCc1c(F)ccc2cc(O)cc(-c3ncc4c(N5Cc6n[nH]c(C(N)=O)c6C5)nc(OC[C@@]56CCCN5C[C@H](F)C6)nc4c3F)c12 [Example 588, 5-(7-(8-ethyl-7-fluoro-3-hydroxynaphthalen-1-yl)-8-fluoro-2-(((2R,7aS)-2-fluorotetrahydro-1H-pyrrolizin-7a(5H)-yl)methoxy)pyrido[4,3-d]pyrimidin-4-yl)-2,4,5,6-tetrahydropyrrolo[3,4-c]pyrazole-3-carboxamide]
10 | 16 nM | 12 nM | 38 nM | 731 nM | 1540 nM | CCc1c(F)ccc2cc(O)cc(-c3ncc4c(N5CCCC6(CC=CCO6)C5)nc(OC[C@@]56CCCN5C[C@H](F)C6)nc4c3F)c12 (stereo partly drawn) [Example 589, 5-ethyl-6-fluoro-4-(8-fluoro-2-(((2R,7aS)-2-fluorotetrahydro-1H-pyrrolizin-7a(5H)-yl)methoxy)-4-(1-oxa-8-azaspiro[5.5]undec-3-en-8-yl)pyrido[4,3-d]pyrimidin-7-yl)naphthalen-2-ol]
11 | 94 nM | 434 nM | 805 nM | 2450 nM | > 10000 nM | CCc1c(F)ccc2cc(O)cc(-c3ncc4c(N5CCC(CC6CCOC6)C5)nc(OC[C@@]56CCCN5C[C@H](F)C6)nc4c3F)c12 (stereo partly drawn) [Example 596, 5-ethyl-6-fluoro-4-(8-fluoro-2-(((2R,7aS)-2-fluorohexahydro-1H-pyrrolizin-7a-yl)methoxy)-4-(3-((tetrahydrofuran-3-yl)methyl)pyrrolidin-1-yl)pyrido[4,3-d]pyrimidin-7-yl)naphthalen-2-ol]
12 | 82 nM | 194 nM | 867 nM | 2360 nM | 4800 nM | CCc1c(F)ccc2cc(O)cc(-c3ncc4c(N5CCC(CC6CCCO6)C5)nc(OC[C@@]56CCCN5C[C@H](F)C6)nc4c3F)c12 (stereo partly drawn) [Example 597, 5-ethyl-6-fluoro-4-(8-fluoro-2-(((2R,7aS)-2-fluorotetrahydro-1H-pyrrolizin-7a(5H)-yl)methoxy)-4-(3-((tetrahydrofuran-2-yl)methyl)pyrrolidin-1-yl)pyrido[4,3-d]pyrimidin-7-yl)naphthalen-2-ol]
13 | 84 nM | 66 nM | 820 nM | > 10000 nM | > 10000 nM | CCc1c(F)ccc2cc(O)cc(-c3ncc4c(N5CCC6(CNC(=O)OC6)C5)nc(OC[C@@]56CCCN5C[C@H](F)C6)nc4c3F)c12 (stereo partly drawn) [Example 598, 2-(7-(8-ethyl-7-fluoro-3-hydroxynaphthalen-1-yl)-8-fluoro-2-(((2R,7aS)-2-fluorotetrahydro-1H-pyrrolizin-7a(5H)-yl)methoxy)pyrido[4,3-d]pyrimidin-4-yl)-7-oxa-2,9-diazaspiro[4.5]decan-8-one]
14 | 880 nM | 886 nM | 5040 nM | > 10000 nM | > 10000 nM | CCc1c(F)ccc2cc(O)cc(-c3ncc4c(N5CCC6(CC5)OCCC6O)nc(OC[C@@]56CCCN5C[C@H](F)C6)nc4c3F)c12 (stereo partly drawn) [Example 600, 8-(7-(8-ethyl-7-fluoro-3-hydroxynaphthalen-1-yl)-8-fluoro-2-(((2R,7aS)-2-fluorotetrahydro-1H-pyrrolizin-7a(5H)-yl)methoxy)pyrido[4,3-d]pyrimidin-4-yl)-1-oxa-8-azaspiro[4.5]decan-4-ol]
15 | 243 nM | 161 nM | 484 nM | 3870 nM | 5460 nM | CCc1c(F)ccc2cc(O)cc(-c3ncc4c(N5CCOC[C@@](C)(COC)C5)nc(OC[C@@]56CCCN5C[C@H](F)C6)nc4c3F)c12 [Example 602, 5-ethyl-6-fluoro-4-(8-fluoro-2-(((2R,7aS)-2-fluorotetrahydro-1H-pyrrolizin-7a(5H)-yl)methoxy)-4-((R)-6-(methoxymethyl)-6-methyl-1,4-oxazepan-4-yl)pyrido[4,3-d]pyrimidin-7-yl)naphthalen-2-ol]
